Data reported in patent US20160046597A1, “RORC2 INHIBITORS AND METHODS OF USE THEREOF” (PFIZER INC., priority 2013, published 2016).

Target: T1, RORC2 ligand binding domain (6-His-RORC2 LBD) (Homo sapiens, UniProt P51449)
T1 construct: made in house; host or cells: E. coli
T1 sequence (P51449 269-508 limits assumed): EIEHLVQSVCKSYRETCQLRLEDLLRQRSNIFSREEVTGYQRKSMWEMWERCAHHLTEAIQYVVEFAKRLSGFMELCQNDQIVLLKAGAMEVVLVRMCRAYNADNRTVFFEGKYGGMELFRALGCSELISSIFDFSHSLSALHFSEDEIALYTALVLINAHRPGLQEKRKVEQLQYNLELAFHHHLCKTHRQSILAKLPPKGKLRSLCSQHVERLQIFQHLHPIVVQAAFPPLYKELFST
Experiment: Co-activator recruitment by TR-FRET (RORC2 FRET)
Type: biochemical
Details: 6.3 nM RORC2 LBD, 200 nM SRC1-2 coactivator peptide, 3 hours room temperature

IC50 [nM] | Compound
> 20000 | N#Cc1cccc(C(=O)Nc2ccc3[nH]cc(C4CCN(CC5CCCC5)CC4)c3c2)c1 [Example 87, 3-cyano-N-(3-(1-(cyclopentylmethyl)piperidin-4-yl)-1H-indol-5-yl)benzamide]
14.2 | Cc1c(NC(=O)c2cccc(C#N)c2)ccc2c1c(C1CCN(C(=O)C[C@@H](O)C(F)(F)F)CC1)cn2C [Example 89, (R)-3-cyano-N-(1,4-dimethyl-3-(1-(4,4,4-trifluoro-3-hydroxybutanoyl)-piperidin-4-yl)-1H-indol-5-yl)benzamide]
13.9 | Cn1cc(C2CCN(C(=O)C[C@@H](O)C(F)(F)F)CC2)c2cc(NC(=O)c3cccc(C#N)c3)ccc21 [Example 90, (R)-3-cyano-N-(1-methyl-3-(1-(4,4,4-trifluoro-3-hydroxybutanoyl)piperidin-4-yl)-1H-indol-5-yl)benzamide]
9.8 | Cn1cc(C2CCN(C(=O)C[C@@H](O)C(F)(F)F)CC2)c2cc(NS(=O)(=O)c3ccc(F)cc3)ccc21 [Example 91, (R)-4-fluoro-N-(1-methyl-3-(1-(4,4,4-trifluoro-3-hydroxybutanoyl)piperidin-4-yl)-1H-indol-5-yl)benzenesulfonamide]
10.5 | CC(C)C(=O)N1CCC(c2cn(C)c3ccc(NS(=O)(=O)c4ccc(F)cc4)cc23)CC1 [Example 92, 4-fluoro-N-(3-(1-isobutyrylpiperidin-4-yl)-1-methyl-1H-indol-5-yl)benzenesulfonamide]
4.9 | CC1CCN(S(=O)(=O)Nc2ccc3c(c2)c(C2CCN(C(=O)C4CCCC4)CC2)cn3C)CC1 [Example 93, N-(3-(1-(cyclopentanecarbonyl)piperidin-4-yl)-1-methyl-1H-indol-5-yl)-4-methylpiperidine-1-sulfonamide]
46.8 | Cc1c(NC(=O)c2cccc(C#N)c2)cnc2c1c(C1CCN(C(=O)C[C@@H](O)C(F)(F)F)CC1)cn2C [Example 95, (R)-3-Cyano-N-(1,4-dimethyl-3-(1-(4,4,4-trifluoro-3-hydroxybutanoyl)piperidin-4-yl)-1H-pyrrolo[2,3-b]pyridin-5-yl)benzamide]
